Consider 3 molecules from article PMC9963409, “Structural Insight into Catalysis by the Flavin-Dependent NADH Oxidase (Pden_5119) of Paracoccus denitrificans” (International Journal of Molecular Sciences, 2023).

The target of data set [1] is T1, Pden_5119 (Paracoccus denitrificans, UniProt A1BCD5).
T1 construct: C-terminal His6 tag kept, expressed in E. coli BL21(DE3)pLysS; subunit 20596 g/mol; dimer in solution; contains no cysteine
Nature of the data set: intrinsic protein fluorescence quenching titration. It counts as binding. To be noted: read-out: Kd^FMN. The text has this:
(§1) intrinsic protein fluorescence quenching titration on Pden_5119

In data set [2] the target is T2, Pden_5119 (Paracoccus denitrificans, UniProt A1BCD5, H117A).
T2 construct: C-terminal His6 tag kept, expressed in E. coli BL21(DE3)pLysS; subunit 20596 g/mol; dimer in solution; contains no cysteine
T2 sequence (A1BCD5 entry or part of it H117A): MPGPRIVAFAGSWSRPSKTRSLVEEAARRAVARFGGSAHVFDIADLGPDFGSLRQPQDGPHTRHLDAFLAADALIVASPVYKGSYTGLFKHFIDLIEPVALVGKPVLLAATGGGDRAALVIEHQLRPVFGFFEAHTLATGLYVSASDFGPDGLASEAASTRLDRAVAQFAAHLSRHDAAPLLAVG
Nature of the data set: intrinsic protein fluorescence quenching titration. In kind it is binding. The note with it: read-out: Kd^FMN.
From the text: as §1

In data set [3] the target is T3, Pden_5119 (Paracoccus denitrificans, UniProt A1BCD5, K82A).
T3 construct: C-terminal His6 tag kept, expressed in E. coli BL21(DE3)pLysS; subunit 20596 g/mol; dimer in solution; contains no cysteine
T3 sequence (A1BCD5 entry or part of it K82A): as the sequence (A1BCD5 entry or part of it H117A) above, with K82A, A117H counted along it
Nature of the data set: intrinsic protein fluorescence quenching titration. In kind it is binding. The note with it: read-out: Kd^FMN.
From the text: as §1

Data set [4] deals with T4, Pden_5119 (Paracoccus denitrificans, UniProt A1BCD5, R116A).
T4 construct: C-terminal His6 tag kept, expressed in E. coli BL21(DE3)pLysS; subunit 20596 g/mol; dimer in solution; contains no cysteine
T4 sequence (A1BCD5 entry or part of it R116A): as the sequence (A1BCD5 entry or part of it H117A) above, with R116A, A117H counted along it
Kind of data set: intrinsic protein fluorescence quenching titration. The note with it: read-out: Kd^FMN. It counts as binding.
From the text: as §1

Data set [5] has as its target T5, Pden_5119 (Paracoccus denitrificans, UniProt A1BCD5, R116K).
T5 construct: C-terminal His6 tag kept, expressed in E. coli BL21(DE3)pLysS; subunit 20596 g/mol; dimer in solution; contains no cysteine
Nature of the data set: intrinsic protein fluorescence quenching titration. The note with it: read-out: Kd^FMN. In kind it is binding.
From the text: as §1

The target of data set [6] is T2, Pden_5119. Nature of the data set: stopped-flow reduction of enzyme-bound FMN at […] nm, hyperbolic fit of kobs. In kind it is biochemical. To be noted: anaerobic reductive half-reaction of enzyme-FMN complex; rapid-equilibrium binding step; 0.1 M sodium phosphate pH 7.3; 10 °C; read-out: KNADH.
For data set [7], the target named is T5, Pden_5119. The description is as above. It counts as biochemical. To be noted: anaerobic reductive half-reaction of enzyme-FMN complex; rapid-equilibrium binding step; 0.1 M sodium phosphate pH 7.3; 10 °C; read-out: KNADH.
The target in data set [8] is T4, Pden_5119. The data set is described as above. To be noted: anaerobic reductive half-reaction of enzyme-FMN complex; rapid-equilibrium binding step; 0.1 M sodium phosphate pH 7.3; 10 °C; read-out: KNADH. It counts as biochemical.
The target in data set [9] is T3, Pden_5119. Described as above. In kind it is biochemical. To be noted: anaerobic reductive half-reaction of enzyme-FMN complex; rapid-equilibrium binding step; 0.1 M sodium phosphate pH 7.3; 10 °C; read-out: KNADH.
The target of data set [10] is T1, Pden_5119. Described as above. In kind it is biochemical. To be noted: anaerobic reductive half-reaction of enzyme-FMN complex; rapid-equilibrium binding step; 0.1 M sodium phosphate pH 7.3; 10 °C; read-out: KNADH.
Data set [11] concerns the molecule itself. Nature of the data set: SAXS; protein at 1.5 mg/mL (73 μM in monomer); ab initio envelope (DAMMIN) and CRYSOL fit of a dimeric homology model to the scattering curve.

T5 sequence (A1BCD5 entry or part of it R116K): as the sequence (A1BCD5 entry or part of it H117A) above, with R116K, A117H counted along it

For `Cc1cc2nc3c(=O)[nH]c(=O)nc-3n(C[C@H](O)[C@H](O)[C@H](O)COP(=O)(O)O)c2cc1C` [FMN], the Kd in [1] stood at 3.8 ± 0.4 µM; in [2], 9.1 ± 0.6 µM; in data set [3] it was 6.8 ± 3.4 µM; in data set [4], 3.5 ± 1.5 µM; in data set [5] it was 600 ± 100 nM.
For the molecule `NC(=O)C1=CN([C@@H]2O[C@H](COP(=O)(O)OP(=O)(O)OC[C@H]3O[C@@H](n4cnc5c(N)ncnc54)[C@H](O)[C@@H]3O)[C@@H](O)[C@H]2O)C=CC1` [NADH], the Kd in [6] worked out at 40 ± 7 µM; in data set [7], 20 ± 4 µM; in data set [8] it was 39 ± 17 µM; in data set [9] it was 53 ± 18 µM; in [10] it was 19 ± 1 µM.

B1: Pden_5119 protein (flavin-dependent NADH oxidase of Paracoccus denitrificans) (enzyme)
chain: MPGPRIVAFAGSWSRPSKTRSLVEEAARRAVARFGGSAHVFDIADLGPDFGSLRQPQDGPHTRHLDAFLAADALIVASPVYKGSYTGLFKHFIDLIEPVALVGKPVLLAATGGGDRHALVIEHQLRPVFGFFEAHTLATGLYVSASDFGPDGLASEAASTRLDRAVAQFAAHLSRHDAAPLLAVG
notes: Pden_5119, product of the gene pden_5119 of Paracoccus denitrificans; subunit molar mass 20 596 g/mol; 15 histidines per monomer including the tag; also called wild-type; not shown: His6, C-terminal, kept
As to B1, the “stoichiometry N” value in data set [11] was found to be 2.

As usually defined, the stoichiometry N is the number of molecules, sites or subunits per partner or assembly.
